# Assay results: patent publication US11279733B2, “Peptide antibiotics” (priority 2017, dated 2022)
# Where two headings read alike, the source gives them in different places. Positions of bridges follow the written chain, without caps; N, C: chain ends. Non-standard residues stand in square brackets, D forms with d. Residues, ends and D or L forms follow the SMILES beside them. *: point of attachment. Decanoyl(3R-OH) = CCCCCCC[C@@H](O)CC(=O)*; X7 = CCC(C)CCCCC(O)CC(=O)*; dOrn = NCCC[C@@H](N)C(=O)O; dDab = NCC[C@@H](N)C(=O)O; X2 = CCC(C)CCC(O)CC(=O)*; dDap = NC[C@@H](N)C(=O)O; Dab = NCC[C@H](N)C(=O)O; X5 = O=C(CCCCCCCO)*
# Assays:
# [1] = test system: K. pneumoniae ATCC 13883
# Outline: (§1)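 Mid-log cultures grown in Mueller Hinton broth at 37° C were tested by 2-fold broth microdilution at 5×10^5 CFU/mL final. Compounds were dissolved in water and tested over a final range of 32 to 0.015 μg/mL.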
# [2] = test system: S. aureus ATCC 25923, MSSA
# Outline: as §1
# [3] = test system: A. baumannii GN_093 PmxR
# Outline: as §1
# [4] = test system: P. aeruginosa GN_105, PmxR
# Outline: as §1
# [5] = test system: K. pneumoniae ATCC 700603, MDR
# Outline: as §1
# [6] = test system: K. pneumoniae GN_106, PmxR
# Outline: as §1
# [7] = test system: K. pneumoniae GN_102 PmxR
# Outline: as §1
# [8] = test system: K. pneumoniae ATCC BAA-2146, NDM-1 pos
# Outline: as §1
# [9] = test system: A. baumannii ATCC 19606
# Outline: as §1
# [10] = test system: P. aeruginosa GN_043, PmxR
# Outline: as §1
# [11] = test system: P. aeruginosa ATCC 27853
# Outline: as §1
# [12] = test system: E. coli ATCC 25922
# Outline: as §1
# [13] = Cytotoxicity, resazurin assay, HEK293; details: human
# Outline: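 Cells (4000/well, pre-attached 24 h) then received 5 μM resazurin for 2 h, with fluorescence measured at ex 560/em 590.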
# [14] = Cytotoxicity, resazurin assay, HepG2; details: human
# Protocol: Cytotoxicity of the synthesised peptides was evaluated by comparison with commercially available colistin (polymyxin E), polymyxin B (Sigma chemical Co., St. Louis, Mo., U.S.A.) and synthetic octapeptin C4 by conducting lactate dehydrogenase (LDH) assay. CC50 values calculated based on curve fitting of dose dependent inhibition of cell growth represented the cytotoxicity of the peptide. Human kidney 2 (HK2) cells were seeded as 2000 cells per well in a 384 well cell culture plate in a final volume of 20 μL in DMEM/F12 medium (Invitrogen #11330057), in which 10% of FBS was added. Cells were incubated for 24 hours at 37° C., 5% CO2 to allow cells to attach to the plates. Similar conditions were employed for HEK293 and HepG2 cytotoxicity assays.
# Cytotoxicity to HEK293 and HepG2 cells was determined using the resazurin assay (McMillian, M. K.; Li, L.; Parker, J. B.; Patel, L.; Zhong, Z.; Gunnett, J. W.; Powers, W. J.; Johnson, M. D. An improved resazurin-based cytotoxicity assay for hepatic cells; Cell Biol. Toxicol. 2002, 18, 157-173; O'Brien, J.; Wilson, I.; Orton, T.; Pognan, F. Investigation of the Alamar Blue (resazurin) fluorescent dye for the assessment of mammalian cell cytotoxicity. Eur. J. Biochem. 2000, 267, 5421-5426). In brief, HEK293 and HepG2 cells were seeded at 4000 cells/well in black-wall, clear-bottom 384-well plates (Corning, Australia) and incubated for 24 h at 37° C., 5% CO2. Compounds were then added into each well. After 24 h incubation, 5 μM resazurin was added per well and incubated at 37° C. for 2 h. Fluorescence intensity was then read using a Polarstar Omega with excitation/emission 560/590. The data was then analyzed using GraphPad Prism 6 software. CC50 values were determined using GraphPad Prism 6 software (Inc. La Jolla, Calif.).
# [15] = Cytotoxicity, HK2 LDH assay; details: human
# Outline: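 HK2 cells were seeded at 2000 per well in DMEM/F12 with 10% FBS and left to attach for 24 h at 37 °C, 5% CO2. They were then exposed for 24 h to 3-fold peptide dilutions starting from 600 μM solutions in quadruplicate. LDH release was read at 450 nm, and CC50 was fitted from dose-response curves.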
SMILES,CC50 at 24 h [13],CC50 at 24 h [14],CC50 at 24 h [15],MIC K. pneumoniae ATCC 13883 ([1]; ATCC 13883),"MIC S. aureus ATCC 25923, MSSA ([2]; ATCC 25923)",MIC A. baumannii GN_093 PmxR ([3]; GN 093 PmxR),"MIC P. aeruginosa GN_105, PmxR ([4]; GN 105, PmxR)","MIC K. pneumoniae ATCC 700603, MDR ([5]; ATCC 700603)","MIC K. pneumoniae GN_106, PmxR ([6]; GN 106, PmxR)",MIC K. pneumoniae GN_102 PmxR ([7]; GN 102 PmxR),"MIC K. pneumoniae ATCC BAA-2146, NDM-1 pos ([8]; ATCC BAA-2146)",MIC A. baumannii ATCC 19606 ([9]; ATCC 19606),"MIC P. aeruginosa GN_043, PmxR ([10]; P. aeruginosa GN_043, PmxR)",MIC P. aeruginosa ATCC 27853 ([11]; ATCC 27853),MIC E. coli ATCC 25922 ([12]; ATCC 25922),other results
"CCC(C)CCCCC(O)CC(=O)N[C@@H](CCN)C(=O)N[C@H]1CCNC(=O)[C@H](CC(C)C)NC(=O)[C@H](CCN)NC(=O)[C@H](CCN)NC(=O)[C@H](CC(C)C)NC(=O)[C@@H](Cc2ccccc2)NC(=O)[C@H](CCN)NC1=O (stereo partly drawn) [compound 5567, nC7(8-Me)CH(OH)CH2CO-L-Dab-cyc[L-Dab-L-Dab-D-Phe-L-Leu-L-Dab-L-Dab-L-Leu]] (X7-[Dab][Dab][Dab][dF]L[Dab][Dab]L; lactam 2-C)",292 µM,150 µM,54 µM,,,,,,,,,,,,,"MIC, K. pneumoniae ATCC 13883 ([1]; Table 6): 8 µg/mL; MIC, S. aureus ATCC 25923, MSSA ([2]; Table 6): 32 µg/mL; MIC A. baumannii GN_093 PmxR ([3]; Table 6, polymyxin-resistant): 16 µg/mL; MIC P. aeruginosa GN_105, PmxR ([4]; Table 6, polymyxin-resistant): 2 µg/mL; MIC, K. pneumoniae ATCC 700603, MDR ([5]; Table 6): 8 µg/mL; MIC K. pneumoniae GN_106, PmxR ([6]; Table 6, polymyxin-resistant): 4 µg/mL; MIC K. pneumoniae GN_102 PmxR ([7]; Table 6, polymyxin-resistant): 8 µg/mL; MIC, K. pneumoniae ATCC BAA-2146, NDM-1 pos ([8]; Table 6): 8 µg/mL; MIC, A. baumannii ATCC 19606 ([9]; Table 6): 8 µg/mL; MIC P. aeruginosa GN_043, PmxR ([10]; Table 6, polymyxin-resistant): 2 µg/mL; MIC, P. aeruginosa ATCC 27853 ([11]; Table 6): 2 µg/mL; MIC, E. coli ATCC 25922 ([12]; Table 6): 8 µg/mL"
"CCC(C)CCC(O)CC(=O)N[C@H](CCN)C(=O)N[C@H]1CCNC(=O)[C@H](CC(C)C)NC(=O)[C@H](CCN)NC(=O)[C@H](CCN)NC(=O)[C@H](Cc2ccccc2)NC(=O)[C@H](CC(C)C)NC(=O)[C@H](CCN)NC1=O (stereo partly drawn) [compound 6371, nC5(6-Me)CH(OH)CH2CO-D-Dab-cyc[L-Dab-L-Dab-L-Leu-L-Phe-L-Dab-L-Dab-L-Leu]] (X2-[dDab][Dab][Dab]LF[Dab][Dab]L; lactam 2-C)",> 300 µM,> 300 µM,> 300 µM,>32 µg/mL,>32 µg/mL,>32 µg/mL,>32 µg/mL,>32 µg/mL,>32 µg/mL,>32 µg/mL,>32 µg/mL,>32 µg/mL,>32 µg/mL,32 µg/mL,>32 µg/mL,
"CCCCCCC[C@@H](O)CC(=O)N[C@H](CN)C(=O)N[C@H]1CCNC(=O)[C@H](CC(C)C)NC(=O)[C@H](CCN)NC(=O)[C@H](CCN)NC(=O)[C@H](Cc2ccccc2)NC(=O)[C@@H](CC(C)C)NC(=O)[C@H](CCN)NC1=O [compound 6427, 3(R)OH-nC9CO-D-Dap-cyc[L-Dab-L-Dab-D-Leu-L-Phe-L-Dab-L-Dab-L-Leu]] ({Decanoyl(3R-OH)}-[dDap][Dab][Dab][dL]F[Dab][Dab]L; lactam 2-C)",> 300 µM,> 300 µM,123 µM,8 µg/mL,32 µg/mL,16 µg/mL,2 µg/mL,8 µg/mL,4 µg/mL,4 µg/mL,8 µg/mL,8 µg/mL,4 µg/mL,4 µg/mL,8 µg/mL,
"CCCCCCC[C@@H](O)CC(=O)N[C@H](CCCN)C(=O)N[C@H]1CCNC(=O)[C@H](CC(C)C)NC(=O)[C@H](CCN)NC(=O)[C@H](CCN)NC(=O)[C@H](Cc2ccccc2)NC(=O)[C@@H](CC(C)C)NC(=O)[C@H](CCN)NC1=O [compound 6428, 3(R)OH-nC9CO-D-Orn-cyc[L-Dab-L-Dab-D-Leu-L-Phe-L-Dab-L-Dab-L-Leu]] ({Decanoyl(3R-OH)}-[dOrn][Dab][Dab][dL]F[Dab][Dab]L; lactam 2-C)",> 300 µM,> 300 µM,137 µM,16 µg/mL,32 µg/mL,16 µg/mL,4 µg/mL,8 µg/mL,4 µg/mL,2 µg/mL,16 µg/mL,32 µg/mL,4 µg/mL,4 µg/mL,16 µg/mL,
"CC(C)C[C@@H]1NC(=O)[C@H](CCN)NC(=O)[C@H](CCN)NC(=O)[C@H](Cc2ccccc2)NC(=O)[C@@H](CC(C)C)NC(=O)[C@H](CCN)NC(=O)[C@@H](NC(=O)[C@@H](CCN)NC(=O)CCCCCCCO)CCNC1=O [compound 6514, 8OH-nC7CO-D-Dab-cyc[L-Dab-L-Dab-D-Leu-L-Phe-L-Dab-L-Dab-L-Leu]] (X5-[dDab][Dab][Dab][dL]F[Dab][Dab]L; lactam 2-C)",> 300 µM,> 300 µM,> 300 µM,,,,,,,,,,4 µg/mL,,,"MIC K. pneumoniae ATCC 13883 ([1]; K. pneumoniae ATCC 13883): >32 µg/mL; MIC S. aureus ATCC 25923, MSSA ([2]; S. aureus ATCC 25923, MSSA): >32 µg/mL; MIC A. baumannii GN_093 PmxR ([3]; A. baumannii GN_093 PmxR): >32 µg/mL; MIC P. aeruginosa GN_105, PmxR ([4]; P. aeruginosa GN_105, PmxR): >32 µg/mL; MIC K. pneumoniae ATCC 700603, MDR ([5]; K. pneumoniae ATCC 700603, MDR): >32 µg/mL; MIC K. pneumoniae GN_106, PmxR ([6]; K. pneumoniae GN_106, PmxR): >32 µg/mL; MIC K. pneumoniae GN_102 PmxR ([7]; K. pneumoniae GN_102 PmxR): >32 µg/mL; MIC K. pneumoniae ATCC BAA-2146, NDM-1 pos ([8]; K. pneumoniae ATCC BAA-2146, NDM-1 pos): >32 µg/mL; MIC A. baumannii ATCC 19606 ([9]; A. baumannii ATCC 19606): >32 µg/mL; MIC P. aeruginosa ATCC 27853 ([11]; P. aeruginosa ATCC 27853): 8 µg/mL; MIC E. coli ATCC 25922 ([12]; E. coli ATCC 25922): >32 µg/mL"
